Data: patent US5578620A, “Thiazolidine and oxazolidine derivatives, their preparation and their medical use” (Sankyo Company, Limited, priority 1994, dated 1996)

Target: T1, Bovine lens aldose reductase (Bos taurus, UniProt P16116)
T1 construct: Bovine lens aldose reductase was separated and partially purified; from tissue; host or cells: bovine lens
Assay: Inhibition of Aldose reductase
Type: biochemical
Details: for inhibition at 5 µg/mL: read-out: Inhibition at 5 μg/ml
Protocol: Bovine lens aldose reductase was separated and partially purified by the method of S. Hyman and J. H. Kinoshita [J. Biol. Chem., 240, 877 (1965)] and K. Inagaki, I. Miwa and J. Okuda [Arch. Biochem. Biophys., 316, 337 (1982)], and its activity was determined photometrically by the method of Varma et al. [Biochem. Pharmac., 25, 2505 (1976)]. […]

IC50 | inhibition at 5 µg/mL | SMILES
3.94 µM | 60.1% | CC(CSc1ccc(CC2SC(=O)NC2=O)cc1)N1CC(COc2cccc(Cl)c2)OC1=O (single isomer, unassigned) [10 (less polar), 5-{4-[2-(5-3'-Chlorophenoxymethyl-2-oxooxazolidin-3-yl)propylthio]benzyl}thiazolidine-2,4-dione]
1.97 µM | 71.7% | CC(COc1ccc(CC2SC(=O)NC2=O)cc1)N1CC(COCCCc2ccccc2)OC1=O (single isomer, unassigned) [24 (less polar), 5-{4-[2-(5-3'-Phenylpropoxymethyl-2-oxooxazolidin-3-yl)propoxy]benzyl}thiazolidine-2,4-dione]
0.789 µM | 88.3% | CC(CSc1ccc(CC2SC(=O)NC2=O)cc1)N1CC(COc2cccc(Cl)c2)OC1=O (stereo not shown) [10 (polar), 5-{4-[2-(5-3'-Chlorophenoxymethyl-2-oxooxazolidin-3-yl)propylthio]benzyl}thiazolidine-2,4-dione]
0.863 µM | 88.1% | COc1ccc(OCC2CN(C(C)COc3ccc(CC4SC(=O)NC4=O)cc3)C(=O)O2)cc1 (stereo not shown) [31 (polar), 5-{4-[2-(5-4'-Methoxyphenoxymethyl-2-oxooxazolidin-3-yl)propoxy]benzyl}thiazolidine-2,4-dione]
6.02 µM | 63.2% | CC(COc1ccc(CC2SC(=O)NC2=O)cc1)NCC(O)COc1cccc(Cl)c1 (stereo not shown) [Example 2, 5-{4-[2-(3-3'-Chlorophenoxy-2-hydroxypropylamino)propoxy]benzyl}thiazolidine-2,4-dione]
2.41 µM | 84.5% | CC(COc1ccc(CC2SC(=O)NC2=O)cc1)N1CC(COc2ccccc2)OC1=O (stereo not shown) [Example 4, 5-{4-[2-(5-Phenoxymethyl-2-oxooxazolidin-3-yl)propoxy]benzyl}thiazolidine-2,4-dione]
4.99 µM | 67.2% | CC(COc1ccc(CC2SC(=O)NC2=O)cc1)N1CC(Cc2ccccc2)OC1=O (stereo not shown) [Example 8, 5-{4-[2-(5-Benzyl-2-oxooxazolidin-3-yl)propoxy]benzyl}thiazolidine-2,4-dione]
6.59 µM | 59.2% | CC(COc1ccc(CC2SC(=O)NC2=O)cc1)NCC(O)COCCCCCc1ccccc1 (stereo not shown) [Example 16, 5-{4-[2-(3-5'-Phenylpentyloxy-2-hydroxypropylamino)propoxy]benzyl}thiazolidine-2,4-dione]
4.61 µM | 58.7% | CC(COc1ccc(CC2SC(=O)NC2=O)cc1)NCC(O)COCCCCCCCCc1ccccc1 (stereo not shown) [Example 21, 5-{4-[2-(3-8'-Phenyloctyloxy-2-hydroxypropylamino)propoxy]benzyl}thiazolidine-2,4-dione]
3.3 µM | 70.7% | CC(COc1ccc(CC2SC(=O)NC2=O)cc1)N1CC(COCCc2ccccc2)OC1=O (stereo not shown) [Example 23, 5-{4-[2-(5-2'-Phenylethoxymethyl-2-oxooxazolidin-3-yl)propoxy]benzyl}thiazolidine-2,4-dione]
1.04 µM | 74.2% | CC(COc1ccc(CC2SC(=O)NC2=O)cc1)N1CC(COCCCCCc2ccccc2)OC1=O (stereo not shown) [Example 26, 5-{4-[2-(5-5'-Phenylpentyloxymethyl-2-oxooxazolidin-3-yl)propoxy]benzyl}thiazolidine-2,4-dione]
3.51 µM | 54.9% | CC(COc1ccc(CC2SC(=O)NC2=O)cc1)N1CC(COCCCCCCc2ccccc2)OC1=O (stereo not shown) [Example 27, 5-{4-[2-(5-6'-Phenylhexyloxymethyl-2-oxooxazolidin-3-yl)propoxy]benzyl}thiazolidine-2,4-dione]
3.79 µM | 68.6% | CC(COc1ccc(CC2SC(=O)NC2=O)cc1)N1CC(COc2cccc(F)c2)OC1=O (stereo not shown) [Example 30, 5-{4-[2-(5-3'-Fluorophenoxymethyl-2-oxooxazolidin-3-yl)propoxy]benzyl}thiazolidine-2,4-dione]
6.12 µM | 54.6% | CC(COc1ccc(CC2SC(=O)NC2=O)cc1)NCC(O)COc1cccc(N(C)C)c1 (stereo not shown) [Example 32, 5-{4-[2-(3-3'-Dimethylaminophenoxy-2-hydroxypropylamino)propoxy]benzyl}thiazolidine-2,4-dione]
0.641 µM | 85.5% | CC(COc1ccc(CC2SC(=O)NC2=O)cc1)N1CC(COc2cccc(N(C)C)c2)OC1=O (stereo not shown) [Example 33, 5-{4-[2-(5-3'-Dimethylaminophenoxymethyl-2-oxooxazolidin-3-yl)propoxy]benzyl}thiazolidine-2,4-dione]
3.75 µM | 62% | CC(COc1ccc(CC2SC(=O)NC2=O)cc1)NCC(O)COc1ccc(-c2ccccc2)cc1 (stereo not shown) [Example 34, 5-{4-[2-(3-4'-Phenylphenoxy-2-hydroxypropylamino)propoxy]benzyl}thiazolidine-2,4-dione]
8.73 µM | 55.2% | CC(COc1ccc(CC2SC(=O)NC2=O)cc1)NCC(O)CSc1ccccc1 (stereo not shown) [Example 37, 5-{4-[2-(3-Phenylthio-2-hydroxypropylamino)propoxy]benzyl}thiazolidine-2,4-dione]
1.5 µM | 80.1% | CC(COc1ccc(CC2SC(=O)NC2=O)cc1)N1CC(CSc2ccccc2)OC1=O (stereo not shown) [Example 38, 5-{4-[2-(5-Phenylthiomethyl-2-oxooxazolidin-3-yl)propoxy]benzyl}thiazolidine-2,4-dione]
1.85 µM | 80.9% | CC(COc1ccc(CC2SC(=O)NC2=O)cc1)N1CC(CN(C)c2ccccc2)OC1=O (stereo not shown) [Example 40, 5-[4-{2-[5-(N-Methyl-N-phenylaminomethyl)-2-oxooxazolidin-3-yl]propoxy}benzyl]thiazolidine-2,4-dione]
1.88 µM | 74% | CC(COc1ccc(CC2SC(=O)NC2=O)cc1)N1CC(COCc2cccc(Cl)c2)OC1=O (stereo not shown) [Example 42, 5-{4-[2-(5-3'-Chlorobenzyloxymethyl-2-oxooxazolidin-3-yl)propoxy]benzyl}thiazolidine-2,4-dione]
1.17 µM | 65.9% | CC(COc1ccc(CC2SC(=O)NC2=O)cc1)N1CC(COCc2cccc(Cl)c2)OC1=S (stereo not shown) [Example 43, 5-{4-[2-(5-3'-Chlorobenzyloxymethyl-2-thioxooxazolidin-3-yl)propoxy]benzyl}thiazolidine-2,4-dione]
1.04 µM | 77.8% | CC(COc1ccc(CC2SC(=O)NC2=O)cc1)N1CC(COc2ccccc2)OC1=S (stereo not shown) [Example 49, 5-{4-[2-(5-Phenoxymethyl-2-thioxooxaolidin-3-yl)propoxy]benzyl}thiazolidine-2,4-dione]
0.617 µM | – | CCCC(COc1ccc(CC2SC(=O)NC2=O)cc1)N1CC(COc2cccc(Cl)c2)OC1=O (stereo not shown) [Example 50, 5-{4-[2-(5-3'-Chlorophenoxymethyl-2-oxooxazolidin-3-yl)pentyloxy]benzyl}thiazolidine-2,4-dione]
1.86 µM | 72.8% | CC(C)(COc1ccc(CC2SC(=O)NC2=O)cc1)N1CC(COc2cccc(Cl)c2)OC1=O (stereo not shown) [Example 52, 5-{4-[2-(5,3'-Chlorophenoxymethyl-2-oxooxazolidin-3-yl)-2-methylpropoxy]benzyl}thiazolidine-2,4-dione]
2.41 µM | 77.6% | O=C1NC(=O)C(Cc2ccc(OCCCN3CC(COc4ccccc4)OC3=O)cc2)S1 (stereo not shown) [Example 53, 5-{4-[3-(5-Phenoxymethyl-2-oxooxazolidin-3-yl)propoxy]benzyl}thiazolidine-2,4-dione]
2.85 µM | 62.7% | CC(COc1ccc(CC2SC(=O)NC2=O)cc1)N1CCOC(COc2cccc(Cl)c2)C1 (stereo not shown) [Example 55, 5-{4-[2-(2-3'-Chlorophenoxymethylmorpholino)propoxy]benzyl}thiazolidine-2,4-dione]

SMILES | IC50 | inhibition at 5 µg/mL
CC(COc1ccc(CC2SC(=O)NC2=O)cc1)N1CC(COCCCCc2ccccc2)OC1=O (single isomer, unassigned) [25 (less polar), 5-{4-[2-(5-4'-Phenylbutoxymethyl-2-oxooxazolidin-3-yl)propoxy]benzyl}thiazolidine-2,4-dione] | 3.9 µM | 57.1%
CCC(COc1ccc(CC2SC(=O)NC2=O)cc1)N1CC(COc2cccc(Cl)c2)OC1=O (single isomer, unassigned) [47 (less polar), 5-{4-[2-(5-3'-Chlorophenoxymethyl-2-oxooxazolidin-3-yl)butoxy]benzyl}thiazolidine-2,4-dione] | 3.17 µM | 57.6%
CC(COc1ccc(CC2SC(=O)NC2=O)cc1)N1CC(COCCCCc2ccccc2)OC1=O (stereo not shown) [25 (polar), 5-{4-[2-(5-4'-Phenylbutoxymethyl-2-oxooxazolidin-3-yl)propoxy]benzyl}thiazolidine-2,4-dione] | 0.429 µM | 82%
CCC(COc1ccc(CC2SC(=O)NC2=O)cc1)NCC(O)COc1cccc(Cl)c1 (stereo not shown) [Example 46, 5-{4-[2-(3-3'-Chlorophenoxy-2-hydroxypropylamino)butoxy]benzyl}thiazolidine-2,4-dione] | 6.05 µM | 61%
O=C1NC(=O)C(Cc2ccc(OCCCCN3CC(COc4cccc(Cl)c4)OC3=O)cc2)S1 (stereo not shown) [Example 54, 5-{4-[4-(5-3'-Chlorophenoxymethyl-2-oxooxazolidin-3-yl)butoxy]benzyl}thiazolidine-2,4-dione] | 1.98 µM | 69.1%
